Values joined by “and” are separate entries in the source; they are usually repeats but may differ in a detail not shown here. Equal entries are not always repeated. “Also recorded” adds a separate entry of the source. Where two headings read alike, the source gives them in different places.
Legend:
TKU015 nattokinase [1] = experiment: Influence of organic solvents on TKU015 nattokinase activity at different temperature (ten days); type: biochemical, Pseudomonas sp. TKU015; settings: mixed with solvent, 100% represents 15 FU/mL
Description: (§1) With respect to thermal stability, TKU015 nattokinase is mixed with different solvents and then respectively placed for ten days at 25° C. and 4° C.

TKU015 nattokinase [2] = experiment: Influence of organic solvents on activity of TKU015 nattokinase; type: biochemical, Pseudomonas sp. TKU015; settings: in the presence of organic solvent; for Relative activity(%) TKU015 nattokinase: 100% represents 20 FU/mL
Description: Protease activity of the supernatant obtained from culture medium of chitinase (cultured in a liquid shaking culture medium (pH 8) including 0.5% by weight of SSP, 0.1% by weight of K2HPO4 and 0.05% by weight of MgSO4.7H2O for 3 days at 30° C.) is respectively tested using casein and N-succinyl-Ala-Ala-Pro-Phe-pNa as substrate.
as §1

PST-01 protease = PST-01 protease (Pseudomonas aeruginosa, UniProt P14756); settings: in the presence of solvent; cited from earlier work
chitosanase = type: biochemical, Pseudomonas sp. TKU015
Description: (§2) In order to produce chitinase and chitosanase, generally, TKU015 is cultured in a liquid shaking culture medium (pH 8) including 0.5% by weight of SSP, 0.1% by weight of K2HPO4 and 0.05% by weight of MgSO4.7H2O for 3 days at 30° C. The obtained fermented supernatant is purified with ammonia sulfate precipitation, DEAE-Sepharose chromatography, Phenyl-Sepharose chromatography, and Sephacryl S-100 chromatography in sequence, and a chitinase and a chitosanase is obtained.
(§3) Pseudomonas sp. TKU015 is cultured in a liquid medium (100 mL/250 mL), which employ shrimp shell powder as carbon/nitrogen source, for 2-3 days at 30° C., and chitinase, chitosanase and nattokinase activity are tested in the medium.

chitinase = experiment: Influence of metal ions and organic solvents on TKU015 chitinase activity; type: biochemical, Pseudomonas sp. TKU015
Description: as §2, §3

TKU015 nattokinase [3] = type: biochemical, Pseudomonas sp. TKU015; settings: for Effect on TKU015 nattokinase activity: metal ion or inhibitor added
nattokinase = settings: ion added; cited from earlier work
TKU015 nattokinase [4] = experiment: Influence of surfactants on TKU015 nattokinase activity; type: biochemical, Pseudomonas sp. TKU015; settings: for Relative activity (%) Nattokinase: 100% represents 18 FU/mL
[5] = biological target: Pseudomonas aeruginosa PseA protease (Pseudomonas aeruginosa, UniProt P14756); settings: cited from earlier work; for Effect of solvent on PseA protease activity: in the presence of solvent
san-ai protease = settings: in the presence of solvent; cited from earlier work
[6] = after placed for 10 days at 4° C.
[7] = after placed for 10 days, temperature not given
[8] = concentration 5 mM, 100% represents 19 FU/mL
[9] = after placed for 10 days at 25° C.
[10] = concentration 10 mM, 100% represents 19 FU/mL

Sequence of Pseudomonas aeruginosa PseA protease (P14756 198-498): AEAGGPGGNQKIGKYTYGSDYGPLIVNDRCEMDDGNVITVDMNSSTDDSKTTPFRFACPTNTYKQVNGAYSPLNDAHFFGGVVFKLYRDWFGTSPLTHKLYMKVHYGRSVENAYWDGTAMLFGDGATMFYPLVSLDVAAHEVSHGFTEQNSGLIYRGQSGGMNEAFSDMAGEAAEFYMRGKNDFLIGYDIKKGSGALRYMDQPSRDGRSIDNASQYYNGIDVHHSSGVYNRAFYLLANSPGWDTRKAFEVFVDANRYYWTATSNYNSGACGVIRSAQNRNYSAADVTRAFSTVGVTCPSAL
Sequence of PST-01 protease (P14756 198-498): as above

Compound: CC(C)O [isopropylalcohol]
- Relative activity(%) TKU015 nattokinase (TKU015 nattokinase [1]; placed ten days at 4 ° C.): 115%
- Relative activity(%) TKU015 nattokinase (TKU015 nattokinase [1]; placed ten days at 25 ° C.): 120%
- Relative activity(%) TKU015 nattokinase (TKU015 nattokinase [2]): 68%

Compound: C[S+](C)[O-] [DMSO]
- Relative activity(%) TKU015 nattokinase (TKU015 nattokinase [1]; placed ten days at 4 ° C.): 90%
- Relative activity(%) TKU015 nattokinase (TKU015 nattokinase [1]; placed ten days at 25 ° C.): 94%
- Relative activity(%) TKU015 nattokinase (TKU015 nattokinase [2]): 80%

Compound: CC(C)=O [acetone]
- Relative activity(%) TKU015 nattokinase (TKU015 nattokinase [1]; placed ten days at 4 ° C.): 128%
- Relative activity(%) TKU015 nattokinase (TKU015 nattokinase [1]; placed ten days at 25 ° C.): 108%
- Activity of PST-01 protease (PST-01 protease): 200%
- Effect of solvent on PST-01 protease activity (PST-01 protease): doesn't change
- Organic solvent resistance of chitosanase (chitosanase; [6]): can affect activity
- Organic solvent resistance of chitinase (chitinase; [7]): can affect activity
- Relative activity(%) TKU015 nattokinase (TKU015 nattokinase [2]): 150%

Compound: [Zn+2] [Zn^2+]
- Relative activity (%) Nattokinase (TKU015 nattokinase [3]; [8]): 94%

Compound: [Ca+2] [Ca^2+]
- Relative activity (%) Nattokinase (TKU015 nattokinase [3]; [8]): 108%
- Effect on TKU015 nattokinase activity (TKU015 nattokinase [3]): does not
- Effect of metal ion on nattokinase activity (nattokinase): increased activity

Compound: Tween 40
- Relative activity (%) Nattokinase (TKU015 nattokinase [4]; surfactant 0.5 % (v/v)): 94%
- Relative activity (%) Nattokinase (TKU015 nattokinase [4]; surfactant 1 % (v/v)): 70%
- Relative activity (%) Nattokinase (TKU015 nattokinase [4]; surfactant 2 % (v/v)): 82%

Compound: CCOC(C)=O [ethyl acetate]
- Relative activity(%) TKU015 nattokinase (TKU015 nattokinase [1]; placed ten days at 4 ° C.): 118%
- Relative activity(%) TKU015 nattokinase (TKU015 nattokinase [1]; placed ten days at 25 ° C.): 92%
- Relative activity(%) TKU015 nattokinase (TKU015 nattokinase [2]): 70%

Compound: O=C(O)CN(CCN(CC(=O)O)CC(=O)O)CC(=O)O [EDTA]
- Relative activity (%) Nattokinase (TKU015 nattokinase [3]): 117%

Compound: Cc1ccccc1 [toluene]
- Relative activity(%) TKU015 nattokinase (TKU015 nattokinase [1]; placed ten days at 4 ° C.): 120%
- Relative activity(%) TKU015 nattokinase (TKU015 nattokinase [1]; placed ten days at 25 ° C.): 100%
- Effect of solvent on PST-01 protease activity (PST-01 protease): doesn't change
- Organic solvent resistance of chitosanase (chitosanase; [9]): don't affect activity
- Organic solvent resistance of chitinase (chitinase; [9]): don't affect activity
- Effect of organic solvent on TKU015 nattokinase activity (TKU015 nattokinase [2]): do not affect
- Relative activity(%) TKU015 nattokinase (TKU015 nattokinase [2]): 106%
- Effect of solvent on PseA protease activity [5]: doesn't change

Compound: O=S(=O)(F)Cc1ccccc1 [PMSF, phenylmethanesulfonyl fluoride]
- Relative activity (%) Nattokinase (TKU015 nattokinase [3]; [8]): 45%
- Relative activity (%) Nattokinase (TKU015 nattokinase [3]; [10]): 0%
- Effect on TKU015 nattokinase activity (TKU015 nattokinase [3]): completely inhibited
- Effect of metal ions and PMSF on chitosanase activity (chitosanase): inhibited

Compound: [Cu+2] [Cu^2+]
- Relative activity (%) Nattokinase (TKU015 nattokinase [3]; [8]): 95%
- Effect on TKU015 nattokinase activity (TKU015 nattokinase [3]): does not
- Effect of metal ions and PMSF on chitosanase activity (chitosanase): inhibited
- Effect of metal ion on nattokinase activity (nattokinase): increased activity

Compound: CC(C)CCO [isoamylalcohol]
- Relative activity(%) TKU015 nattokinase (TKU015 nattokinase [1]; placed ten days at 4 ° C.): 88%
- Relative activity(%) TKU015 nattokinase (TKU015 nattokinase [1]; placed ten days at 25 ° C.): 100%
- Relative activity(%) TKU015 nattokinase (TKU015 nattokinase [2]): 60%

Compound: [Mn+2] [Mn^2+]
- Relative activity (%) Nattokinase (TKU015 nattokinase [3]; [8]): 102%
- Effect of metal ions and PMSF on chitosanase activity (chitosanase): inhibited
- Effect of metal ions on chitinase activity (chitinase): inhibited; also recorded: prohibited

Compound: xylene
- Relative activity(%) TKU015 nattokinase (TKU015 nattokinase [1]; placed ten days at 4 ° C.): 126%
- Relative activity(%) TKU015 nattokinase (TKU015 nattokinase [1]; placed ten days at 25 ° C.): 96%
- Organic solvent resistance of chitosanase (chitosanase; [9]): don't affect activity
- Organic solvent resistance of chitinase (chitinase; [9]): don't affect activity
- Effect of organic solvent on TKU015 nattokinase activity (TKU015 nattokinase [2]): do not affect
- Relative activity(%) TKU015 nattokinase (TKU015 nattokinase [2]): 96%

Compound: CCCCCC [hexane]
- Relative activity(%) TKU015 nattokinase (TKU015 nattokinase [2]): 66%

Compound: [Al+3] [Al^3+]
- Relative activity (%) Nattokinase (TKU015 nattokinase [3]; [8]): 101%

Compound: Triton X-100
- Relative activity (%) Nattokinase (TKU015 nattokinase [4]; surfactant 0.5 % (v/v)): 160%
- Relative activity (%) Nattokinase (TKU015 nattokinase [4]; surfactant 1 % (v/v)): 206%
- Relative activity (%) Nattokinase (TKU015 nattokinase [4]; surfactant 2 % (v/v)): 344%
- Effect on PseA protease activity ([5]; concentration 0.1% or 0.5%): doesn't change

Compound: CCOCC [ethyl ether]
- Relative activity(%) TKU015 nattokinase (TKU015 nattokinase [1]; placed ten days at 4 ° C.): 98%
- Relative activity(%) TKU015 nattokinase (TKU015 nattokinase [1]; placed ten days at 25 ° C.): 70%
- Organic solvent resistance of chitosanase (chitosanase; [6]): can affect activity
- Organic solvent resistance of chitinase (chitinase; [7]): can affect activity
- Inhibition of TKU015 nattokinase activity (TKU015 nattokinase [2]): 50%
- Relative activity(%) TKU015 nattokinase (TKU015 nattokinase [2]): 43%

Compound: CCCCCCCCCCCCOS(=O)(=O)[O-].[Na+] [SDS]
- TKU015 nattokinase remaining activity (TKU015 nattokinase [4]; concentration 0.5, 1, or 2 mM (one value in text)): 50%
- Relative activity (%) Nattokinase (TKU015 nattokinase [4]; surfactant 0.5 mM): 66%
- Relative activity (%) Nattokinase (TKU015 nattokinase [4]; surfactant 1 mM): 56%
- Relative activity (%) Nattokinase (TKU015 nattokinase [4]; surfactant 2 mM): 56%
- Remaining activity of PseA protease ([5]; concentration 0.1%): 61%

Compound: CCO [ethanol]
- Relative activity(%) TKU015 nattokinase (TKU015 nattokinase [1]; placed ten days at 4 ° C.): 114%
- Relative activity(%) TKU015 nattokinase (TKU015 nattokinase [1]; placed ten days at 25 ° C.): 88%
- Relative activity(%) TKU015 nattokinase (TKU015 nattokinase [2]): 65%

Compound: butanol
- Relative activity(%) TKU015 nattokinase (TKU015 nattokinase [1]; placed ten days at 4 ° C.): 125%
- Relative activity(%) TKU015 nattokinase (TKU015 nattokinase [1]; placed ten days at 25 ° C.): 85%
- Relative activity(%) TKU015 nattokinase (TKU015 nattokinase [2]): 70%

Compound: [Fe+2] [Fe^2+]
- Relative activity (%) Nattokinase (TKU015 nattokinase [3]; [8]): 232%
- Relative activity (%) Nattokinase (TKU015 nattokinase [3]; [10]): 156%
- Effect on TKU015 nattokinase activity (TKU015 nattokinase [3]): improve activity; also recorded: increase its activity
- Effect of metal ions on chitinase activity (chitinase): inhibited; also recorded: prohibited

Compound: CC#N [acetonitrile]
- Relative activity(%) TKU015 nattokinase (TKU015 nattokinase [1]; placed ten days at 4 ° C.): 90%
- Relative activity(%) TKU015 nattokinase (TKU015 nattokinase [1]; placed ten days at 25 ° C.): 80%
- Effect of organic solvent on chitosanase activity (chitosanase): can affect activity
- Organic solvent resistance of chitinase (chitinase; [7]): can affect activity
- Relative activity(%) TKU015 nattokinase (TKU015 nattokinase [2]): 88%

Compound: CO [methanol]
- Relative activity(%) TKU015 nattokinase (TKU015 nattokinase [1]; placed ten days at 4 ° C.): 116%
- Relative activity(%) TKU015 nattokinase (TKU015 nattokinase [1]; placed ten days at 25 ° C.): 90%
- Effect of organic solvent on TKU015 nattokinase activity (TKU015 nattokinase [2]): do not affect
- Relative activity(%) TKU015 nattokinase (TKU015 nattokinase [2]): 96%

Compound: [Ba+2] [Ba^2+]
- Relative activity (%) Nattokinase (TKU015 nattokinase [3]; [8]): 109%

Compound: [Mg+2] [Mg^2+]
- Relative activity (%) Nattokinase (TKU015 nattokinase [3]; [8]): 104%
- Effect on TKU015 nattokinase activity (TKU015 nattokinase [3]): does not
- Effect of metal ion on nattokinase activity (nattokinase): increased activity

Compound: CN(C)C=O [DMF, N,N-dimethylformamide]
- Relative activity(%) TKU015 nattokinase (TKU015 nattokinase [1]; placed ten days at 4 ° C.): 120%
- Relative activity(%) TKU015 nattokinase (TKU015 nattokinase [1]; placed ten days at 25 ° C.): 98%
- Effect of solvent on PST-01 protease activity (PST-01 protease): doesn't change
- Organic solvent resistance of chitosanase (chitosanase; [9]): don't affect activity
- Organic solvent resistance of chitinase (chitinase; [9]): don't affect activity
- Relative activity(%) TKU015 nattokinase (TKU015 nattokinase [2]): 80% and 64%
- Effect of solvent on PseA protease activity [5]: doesn't change
- Effect of solvent on san-ai protease activity (san-ai protease): doesn't change
